The text below walks through data of PMC3349818 (Journal of Medicinal Chemistry, 2012).

Data set [1] in a line: Pharmacokinetic study in female CD1 mice, single oral dose. To be noted: CD1, mouse, in vivo, 200 mg/kg.
Data set [2] can be described thus: In vitro liver microsome assay, mouse. As to conditions: predicted from mouse liver microsome stability. It counts as in vitro ADME.

As a reminder, the AUC is the area under the concentration-time curve, a measure of exposure. In turn, `CCOC(=O)c1c(-c2cccc(Br)c2)[nH]c2cc(OC)c(F)cc2c1=O` [20h] yielded an area under the curve (AUC) in data set [1] above 70 µM·h. On to `CCOC(=O)c1c(-c2cccc(Cl)c2)[nH]c2cc(OC)c(F)cc2c1=O` [20g, Ethyl 2-(3-chlorophenyl)-6-fluoro-7-methoxy-4-oxo-1,4-dihydroquinoline-3-carboxylate], for which the area under the curve (AUC) in data set [1] is above 125 µM·h. Besides, in data set [2], the “predicted in vivo mouse CL′inf” value was 9.4 mL/min/kg.
